According to ChEMBL document CHEMBL4052799, “Discovery of orally bioavailable cyclohexanol-based NR2B-selective NMDA receptor antagonists with analgesic activity utilizing a scaffold hopping approach” (Bioorg Med Chem Lett, 2017):

Assays:
[1] = target: Glutamate receptor ionotropic, NMDA 2B (Mus musculus, UniProt P35438+Q01097); assay: Antagonist activity at mouse NR2B expressed in Hek293 cells co-expressing mouse NR1 assessed as inhibition of glutamic acid/glycine-induced intracellular Ca2+ levels measured after 1 day post induction by Fluo-3/AM dye-based fluorescence assay; type: cell-based
[2] = Total clearance in Sprague-Dawley rat at 0.5 mg/kg, iv or 1 mg/kg, po administered through cassette dosing; type: ADME, organism-based; details: in vivo
[3] = Ratio of drug level in brain to plasma in Sprague-Dawley rat at 0.5 mg/kg, iv administered through cassette dosing measured after 0.5 hrs; type: ADME, organism-based; details: brain and plasma
[4] = Oral bioavailability in Sprague-Dawley rat at 1 mg/kg administered through cassette dosing; type: ADME, organism-based; details: in vivo
[5] = target: Glutamate receptor ionotropic, NMDA 2B (Rattus norvegicus, UniProt Q00960); assay: Displacement of [3H]-ifenprodil from NR2B in Wistar rat brain membrane after 120 mins by liquid scintillation counting analysis; type: cell membranes
Mus musculus [6] = assay: Analgesic activity in po dosed formalin-induced chronic pain ICR mouse model assessed as reduction in rate of licking time in late phase at 50 mg/kg administered 30 min prior to formalin challenge measured during 10 to 30 mins post formalin challenge relative to control; type: functional
Mus musculus [7] = assay: Analgesic activity in po dosed formalin-induced chronic pain ICR mouse model assessed as reduction in rate of licking time in early phase at 50 mg/kg administered 30 min prior to formalin challenge measured during first 5 mins post formalin challenge relative to control; type: functional
hERG (KCNH2) = hERG (KCNH2) (Homo sapiens, UniProt Q12809); assay: Inhibition of human ERG expressed in HEK293 cells at 1 uM after 10 mins by whole cell patch clamp method relative to control; type: cell-based; details: HEK293 cells that express hERG
Mus musculus [8] = assay: Analgesic activity in po dosed formalin-induced chronic pain ICR mouse model assessed as reduction in rate of licking time in early phase at 30 mg/kg administered 30 min prior to formalin challenge measured during first 5 mins post formalin challenge relative to control; type: functional
Mus musculus [9] = assay: Analgesic activity in po dosed formalin-induced chronic pain ICR mouse model assessed as reduction in rate of licking time in late phase at 30 mg/kg administered 30 min prior to formalin challenge measured during 10 to 30 mins post formalin challenge relative to control; type: functional

Sequence of Glutamate receptor ionotropic, NMDA 2B (Rattus norvegicus, UniProt Q00960) (Q00960 whole entry): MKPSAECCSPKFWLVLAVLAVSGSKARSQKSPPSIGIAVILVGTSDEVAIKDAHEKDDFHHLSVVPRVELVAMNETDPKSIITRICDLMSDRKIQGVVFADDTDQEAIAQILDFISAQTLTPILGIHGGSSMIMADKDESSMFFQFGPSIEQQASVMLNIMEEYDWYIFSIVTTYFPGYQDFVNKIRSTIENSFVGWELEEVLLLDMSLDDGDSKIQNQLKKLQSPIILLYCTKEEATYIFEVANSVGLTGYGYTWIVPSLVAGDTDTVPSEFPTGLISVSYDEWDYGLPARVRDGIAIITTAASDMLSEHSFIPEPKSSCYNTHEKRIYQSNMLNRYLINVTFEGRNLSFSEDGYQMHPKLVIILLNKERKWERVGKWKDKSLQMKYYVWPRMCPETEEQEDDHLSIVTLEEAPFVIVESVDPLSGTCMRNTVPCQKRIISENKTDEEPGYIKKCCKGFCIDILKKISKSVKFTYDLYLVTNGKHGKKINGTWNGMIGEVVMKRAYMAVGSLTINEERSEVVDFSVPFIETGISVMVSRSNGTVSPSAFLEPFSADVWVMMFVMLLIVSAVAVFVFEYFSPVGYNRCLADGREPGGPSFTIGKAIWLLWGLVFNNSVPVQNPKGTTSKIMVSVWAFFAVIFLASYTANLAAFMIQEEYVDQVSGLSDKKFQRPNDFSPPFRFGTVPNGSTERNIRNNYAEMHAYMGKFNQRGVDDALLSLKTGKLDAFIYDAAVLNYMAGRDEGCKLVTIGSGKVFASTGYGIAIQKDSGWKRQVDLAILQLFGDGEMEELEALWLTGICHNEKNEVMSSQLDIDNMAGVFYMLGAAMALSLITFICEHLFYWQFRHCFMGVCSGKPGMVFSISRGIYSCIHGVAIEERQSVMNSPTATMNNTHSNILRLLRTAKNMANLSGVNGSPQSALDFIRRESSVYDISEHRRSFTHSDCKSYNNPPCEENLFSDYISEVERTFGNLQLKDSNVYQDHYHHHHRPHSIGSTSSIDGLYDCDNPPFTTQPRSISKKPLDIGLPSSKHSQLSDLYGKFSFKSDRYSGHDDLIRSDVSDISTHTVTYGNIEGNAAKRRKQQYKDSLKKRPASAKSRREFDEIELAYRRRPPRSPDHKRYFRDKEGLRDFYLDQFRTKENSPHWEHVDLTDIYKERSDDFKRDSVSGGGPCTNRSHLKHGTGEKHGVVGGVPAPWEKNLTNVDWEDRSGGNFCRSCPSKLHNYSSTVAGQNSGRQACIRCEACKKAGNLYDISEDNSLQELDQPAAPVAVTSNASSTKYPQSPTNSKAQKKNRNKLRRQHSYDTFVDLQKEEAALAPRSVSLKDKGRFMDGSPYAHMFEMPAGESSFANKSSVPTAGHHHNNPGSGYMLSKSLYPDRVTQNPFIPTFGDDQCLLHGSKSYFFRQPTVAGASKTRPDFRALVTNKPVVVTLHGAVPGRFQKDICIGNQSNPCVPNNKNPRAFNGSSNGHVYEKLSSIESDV
Sequence of Glutamate receptor ionotropic, NMDA 2B (Mus musculus, UniProt P35438+Q01097) (Q01097 whole entry, one chain of several): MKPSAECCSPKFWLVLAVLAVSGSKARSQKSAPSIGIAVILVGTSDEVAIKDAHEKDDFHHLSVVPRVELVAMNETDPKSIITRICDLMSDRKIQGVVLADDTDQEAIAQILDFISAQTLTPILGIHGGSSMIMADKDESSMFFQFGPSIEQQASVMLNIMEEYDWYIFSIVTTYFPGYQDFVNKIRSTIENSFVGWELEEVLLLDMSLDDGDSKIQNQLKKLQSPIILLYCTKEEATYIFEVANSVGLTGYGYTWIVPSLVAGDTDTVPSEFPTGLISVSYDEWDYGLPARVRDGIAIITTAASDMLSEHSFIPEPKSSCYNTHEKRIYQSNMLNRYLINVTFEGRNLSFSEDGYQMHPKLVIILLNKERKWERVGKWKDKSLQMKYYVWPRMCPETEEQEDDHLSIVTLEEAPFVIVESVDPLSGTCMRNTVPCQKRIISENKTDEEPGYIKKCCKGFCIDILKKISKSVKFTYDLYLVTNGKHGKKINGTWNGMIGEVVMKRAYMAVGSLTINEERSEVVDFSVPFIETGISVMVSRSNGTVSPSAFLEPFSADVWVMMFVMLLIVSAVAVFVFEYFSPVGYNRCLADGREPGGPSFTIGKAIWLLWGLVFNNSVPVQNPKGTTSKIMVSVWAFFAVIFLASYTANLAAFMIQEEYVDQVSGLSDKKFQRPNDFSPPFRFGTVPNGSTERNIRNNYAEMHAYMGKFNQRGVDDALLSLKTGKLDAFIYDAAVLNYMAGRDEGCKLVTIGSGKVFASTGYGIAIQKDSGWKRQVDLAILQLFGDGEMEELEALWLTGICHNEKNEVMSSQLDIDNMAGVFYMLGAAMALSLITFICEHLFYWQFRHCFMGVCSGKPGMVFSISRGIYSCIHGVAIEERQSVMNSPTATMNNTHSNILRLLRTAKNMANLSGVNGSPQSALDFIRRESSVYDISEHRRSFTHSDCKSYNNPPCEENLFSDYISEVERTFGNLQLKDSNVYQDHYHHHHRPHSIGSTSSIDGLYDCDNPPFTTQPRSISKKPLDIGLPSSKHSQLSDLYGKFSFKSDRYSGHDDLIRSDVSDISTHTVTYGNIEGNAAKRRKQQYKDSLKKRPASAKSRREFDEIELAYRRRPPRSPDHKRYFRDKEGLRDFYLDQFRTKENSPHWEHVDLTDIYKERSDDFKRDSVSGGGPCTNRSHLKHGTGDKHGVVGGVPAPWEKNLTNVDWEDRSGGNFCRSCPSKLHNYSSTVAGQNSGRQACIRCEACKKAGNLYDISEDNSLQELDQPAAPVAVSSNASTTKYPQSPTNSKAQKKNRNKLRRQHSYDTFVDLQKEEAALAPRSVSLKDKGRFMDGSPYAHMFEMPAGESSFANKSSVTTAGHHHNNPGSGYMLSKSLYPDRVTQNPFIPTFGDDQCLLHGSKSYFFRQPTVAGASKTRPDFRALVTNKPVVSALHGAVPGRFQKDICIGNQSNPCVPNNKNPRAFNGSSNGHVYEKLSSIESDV
Sequence of hERG (KCNH2) (Q12809 whole entry): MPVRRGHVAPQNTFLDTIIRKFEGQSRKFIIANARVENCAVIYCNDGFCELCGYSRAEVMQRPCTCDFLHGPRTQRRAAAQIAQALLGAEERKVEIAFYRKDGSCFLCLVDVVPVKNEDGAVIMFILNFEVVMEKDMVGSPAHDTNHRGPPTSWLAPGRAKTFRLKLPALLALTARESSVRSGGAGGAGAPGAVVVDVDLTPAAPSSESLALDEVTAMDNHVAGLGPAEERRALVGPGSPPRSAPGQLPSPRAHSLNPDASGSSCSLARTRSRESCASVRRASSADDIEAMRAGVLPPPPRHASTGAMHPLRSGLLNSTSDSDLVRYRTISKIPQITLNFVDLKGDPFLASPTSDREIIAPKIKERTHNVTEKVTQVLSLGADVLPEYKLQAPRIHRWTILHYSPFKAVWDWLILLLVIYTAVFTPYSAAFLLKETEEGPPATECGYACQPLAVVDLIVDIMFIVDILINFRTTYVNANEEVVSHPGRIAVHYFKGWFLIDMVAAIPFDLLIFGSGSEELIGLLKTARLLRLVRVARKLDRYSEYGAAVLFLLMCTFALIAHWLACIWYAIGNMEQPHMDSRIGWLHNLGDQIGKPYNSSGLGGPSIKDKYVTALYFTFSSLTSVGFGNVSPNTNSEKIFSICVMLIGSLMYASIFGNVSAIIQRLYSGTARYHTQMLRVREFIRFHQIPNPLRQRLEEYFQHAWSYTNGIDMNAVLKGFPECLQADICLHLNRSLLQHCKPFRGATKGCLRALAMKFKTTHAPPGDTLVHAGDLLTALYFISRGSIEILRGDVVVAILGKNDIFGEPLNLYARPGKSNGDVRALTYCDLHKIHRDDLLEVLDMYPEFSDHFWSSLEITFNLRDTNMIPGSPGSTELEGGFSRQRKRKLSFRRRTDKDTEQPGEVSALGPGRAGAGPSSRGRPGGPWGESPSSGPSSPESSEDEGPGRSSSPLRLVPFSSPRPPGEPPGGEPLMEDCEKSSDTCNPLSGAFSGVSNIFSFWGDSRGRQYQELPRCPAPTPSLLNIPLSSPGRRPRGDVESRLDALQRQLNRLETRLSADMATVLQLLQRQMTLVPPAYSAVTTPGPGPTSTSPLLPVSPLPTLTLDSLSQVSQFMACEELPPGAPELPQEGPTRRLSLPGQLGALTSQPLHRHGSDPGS

| Structure (SMILES) | IC50 [1] [nM] | clearance [2] [mL/min/kg] | Kp at 0.5 h [3] | bioavailability [4] [%] | IC50 [5] [nM] | inhibition in vivo at 50 mg/kg (Mus musculus [6]) [%] | inhibition in vivo at 50 mg/kg (Mus musculus [7]) [%] | inhibition at 10 min, 1 µM (hERG (KCNH2)) [%] | inhibition in vivo at 30 mg/kg (Mus musculus [8]) [%] | inhibition in vivo at 30 mg/kg (Mus musculus [9]) [%] |
| --- | --- | --- | --- | --- | --- | --- | --- | --- | --- | --- |
| O=C(C[C@]1(O)CC[C@@H](Cc2ccc(F)c(F)c2)CC1)Nc1ccc2[nH]c(=O)oc2c1 | 2 | 35.7 | 0.14 | 12.1 | 25.1 | – | – | – | – | – |
| O=C(C[C@]1(O)CC[C@@H](Cc2ccccc2)CC1)Nc1ccc2[nH]c(=O)oc2c1 | 0.631 | 34.1 | 0.25 | 47.4 | 15.8 | 66.7 | 58.1 | 13.2 | – | – |
| O=C(C[C@]1(O)CC[C@@H](Cc2ccc(C(F)(F)F)cc2)CC1)Nc1ccc2[nH]c(=O)oc2c1 | 6.31 | – | – | – | 25.1 | – | – | – | – | – |
| O=C(C[C@]1(O)CC[C@H](Cc2ccc(F)cc2)CC1)Nc1ccc2[nH]c(=O)oc2c1 | 15.8 | 42.3 | 0.23 | 58 | 39.8 | – | – | 12.2 | – | – |
| O[C@]1(Cc2cc(-c3cn[nH]c3)on2)CC[C@H](Cc2ccc(OC(F)(F)F)cc2)CC1 | 25.1 | 6.2 | 2.51 | 121 | 79.4 | – | – | – | 76.8 | 95.4 |
| O=C1Cc2cc(NC(=O)C[C@]3(O)CC[C@@H](Cc4ccccc4)CC3)ccc2N1 | 15.8 | 16.5 | 0.11 | 28.2 | 31.6 | – | – | 12.1 | – | – |
| O=c1[nH]c2ccc(-c3cc(C[C@]4(O)CC[C@@H](Cc5ccc(Cl)cc5)CC4)no3)cc2o1 | 39.8 | – | – | – | 200 | – | – | – | – | – |
| O[C@]1(Cc2cc(-c3cn[nH]c3)on2)CC[C@H](Cc2ccc(C(F)(F)F)cc2)CC1 | 12.6 | 4 | 2.66 | 67.5 | 100 | – | – | – | 84.8 | 96.5 |
| O=C(C[C@]1(O)CC[C@@H](Cc2ccccc2)CC1)Nc1ccc2[nH]ncc2c1 | 39.8 | 21.5 | 0.9 | 23.7 | 63.1 | 74.4 | 59.5 | 18 | – | – |
| O[C@]1(Cc2cc(-c3cn[nH]c3)on2)CC[C@H](Cc2ccc(Cl)cc2)CC1 | 6.31 | 11.7 | 1.31 | 72.8 | 39.8 | – | – | 32 | – | – |
| O=c1[nH]c2ccc(-c3cc(C[C@]4(O)CC[C@@H](Cc5ccccc5)CC4)no3)cc2o1 | 15.8 | 12.1 | 0.92 | 8.4 | 100 | – | – | – | – | – |
| COc1ccc(C[C@H]2CC[C@](O)(Cc3cc(-c4cn[nH]c4)on3)CC2)cc1 | 25.1 | 61.8 | 1.64 | 23.7 | 39.8 | – | – | – | – | – |
| O=c1ccc(-c2cc(C[C@]3(O)CC[C@H](Cc4ccc(Cl)cc4)CC3)no2)c[nH]1 | 63.1 | 6.6 | 0.47 | 38.7 | 316 | – | – | 29.2 | – | – |
| O=c1ccc(-c2cc(C[C@]3(O)CC[C@@H](Cc4ccccc4)CC3)no2)c[nH]1 | 10 | 37.6 | 0.34 | 53.1 | 25.1 | – | – | 4.4 | – | – |
| O=C(C[C@]1(O)CC[C@@H](Cc2ccc(Cl)cc2)CC1)Nc1ccc2[nH]c(=O)oc2c1 | 3.16 | – | – | – | 25.1 | – | – | – | – | – |
| O=C1CCc2cc(NC(=O)C[C@]3(O)CC[C@@H](Cc4ccccc4)CC3)ccc2N1 | 10 | 24.4 | 0.18 | 53.4 | 31.6 | 25.7 | 1.5 | 11.3 | – | – |
| O[C@]1(Cc2cc(-c3cn[nH]c3)on2)CC[C@H](Cc2ccc(F)c(F)c2)CC1 | 39.8 | 15.2 | 1.99 | 67.5 | 79.4 | – | – | 15 | – | – |
| O=C(C[C@]1(O)CC[C@H](Cc2ccccc2)CC1)Nc1ccc2[nH]c(=O)oc2c1 | 15.8 | 35.1 | 0.9 | 33 | 31.6 | – | – | 7.7 | – | – |
| O[C@]1(Cc2cc(-c3cn[nH]c3)on2)CC[C@@H](Cc2ccc(Cl)cc2)CC1 | 200 | – | – | – | 631 | – | – | – | – | – |
| O=C(C[C@]1(O)CC[C@@H](Cc2ccc(OC(F)(F)F)cc2)CC1)Nc1ccc2[nH]c(=O)oc2c1 | 3.16 | 21 | 0.15 | 53.4 | 50.1 | – | – | – | – | – |
| O=c1ccc(-c2nc(C[C@]3(O)CC[C@@H](Cc4ccc(Cl)cc4)CC3)no2)c[nH]1 | 158 | – | – | – | 126 | – | – | – | – | – |
| COc1ccc(C[C@H]2CC[C@](O)(CC(=O)Nc3ccc4[nH]c(=O)oc4c3)CC2)cc1 | 1 | 45.9 | 0.11 | 16 | 63.1 | – | – | – | – | – |
| O=C(Nc1ccc2[nH]c(=O)oc2c1)C(=O)N1CCC(Cc2ccc(F)cc2)CC1 [RADIPRODIL] | 3.16 | 37.1 | 1 | 30 | 31.6 | – | – | – | – | – |
| O=c1ccc(-c2cc(C[C@]3(O)CC[C@@H](Cc4ccc(Cl)cc4)CC3)no2)c[nH]1 | 1 | 16.8 | 0.08 | 37.2 | 25.1 | – | – | 23 | – | – |
| O=C(C[C@]1(O)CC[C@@H](Cc2ccc(F)cc2)CC1)Nc1ccc2[nH]c(=O)oc2c1 | 0.631 | 36.8 | 0.12 | 42.4 | 25.1 | – | – | 26.1 | – | – |
| O[C@]1(Cc2cc(-c3cn[nH]c3)on2)CC[C@H](Cc2ccccc2)CC1 | 15.8 | 56.5 | 1.44 | 46.3 | 39.8 | – | – | 14 | – | – |
| O[C@]1(Cc2cc(-c3cn[nH]c3)on2)CC[C@H](Cc2ccc(F)cc2)CC1 | 12.6 | 30 | 1.62 | 78 | 12.6 | – | – | 22.5 | – | – |
